From ChEMBL document CHEMBL2046431 (Bioorg Med Chem, 2012)

Assay: Permeability across human Caco2 cells
Assay type: ADME, cell-based
Details: Caco-2, read-out: permeability

| SMILES | Papp |
| --- | --- |
| CN(c1cc2cc(c1)C(=O)N[C@H]([C@H](O)CNCc1ccccc1)COCCCCCNC2=O)S(C)(=O)=O | ≤ 1 ×10⁻⁶ cm/s |
| CC(C)c1cccc(CNC[C@@H](O)[C@@H]2COC/C=C/C[C@@H](c3ccccc3)NC(=O)c3cc(cc(N(C)S(C)(=O)=O)c3)C(=O)N2)c1 | ≤ 1 ×10⁻⁶ cm/s |
| CC(C)c1cccc(CNC[C@@H](O)[C@@H]2COC/C=C/C[C@H](c3ccccc3)NC(=O)c3cc(cc(N(C)S(C)(=O)=O)c3)C(=O)N2)c1 | ≤ 1 ×10⁻⁶ cm/s |
| Cc1cc2cc(c1)C(=O)N[C@H]([C@H](O)CNCc1ccccc1)COC/C=C/CCNC2=O | ≤ 1 ×10⁻⁶ cm/s |
| Cc1cc2cc(c1)C(=O)N[C@H]([C@H](O)CNCc1cccc(C(C)C)c1)COC/C=C/C[C@@H](c1ccccc1)NC2=O | ≤ 1 ×10⁻⁶ cm/s |
| Cc1cc2cc(c1)C(=O)N[C@@H](c1ccccc1)C/C=C/COC[C@@H]([C@H](O)CNCc1cccc(C(C)C)c1)NC2=O | ≤ 1 ×10⁻⁶ cm/s |

The remaining lines, values ahead:

| Papp | SMILES |
| --- | --- |
| ≤ 1 ×10⁻⁶ cm/s | CN(c1cc2cc(c1)C(=O)N[C@H]([C@H](O)CNCc1ccccc1)COC/C=C/CCNC2=O)S(C)(=O)=O |
| ≤ 1 ×10⁻⁶ cm/s | CC(C)c1cccc(CNC[C@@H](O)[C@@H]2COC/C=C/CCNC(=O)c3cc(cc(N(C)S(C)(=O)=O)c3)C(=O)N2)c1 |
| ≤ 1 ×10⁻⁶ cm/s | CN(c1cc2cc(c1)C(=O)N[C@H]([C@H](O)CNCc1cccc(C(C)(C)C)c1)COC/C=C/CCNC2=O)S(C)(=O)=O |
| ≤ 1 ×10⁻⁶ cm/s | CC(C)c1cccc(CNC[C@@H](O)[C@@H]2COC/C=C/CCCNC(=O)c3cc(cc(N(C)S(C)(=O)=O)c3)C(=O)N2)c1 |
| ≤ 1 ×10⁻⁶ cm/s | CC(C)c1cccc(CNC[C@@H](O)[C@@H]2COCCCCCNC(=O)c3cc(cc(N(C)S(C)(=O)=O)c3)C(=O)N2)c1 |
| ≤ 1 ×10⁻⁶ cm/s | CC(C)c1cccc(CNC[C@@H](O)[C@@H]2COCCCCCCNC(=O)c3cc(cc(N(C)S(C)(=O)=O)c3)C(=O)N2)c1 |
| ≤ 1 ×10⁻⁶ cm/s | CC(C)c1cccc(CNC[C@@H](O)[C@@H]2COC/C=C\CCN(C)C(=O)c3cc(cc(N(C)S(C)(=O)=O)c3)C(=O)N2)c1 |
| ≤ 1 ×10⁻⁶ cm/s | Cc1cc2cc(c1)C(=O)N[C@H]([C@H](O)CNCc1cccc(C(C)C)c1)COC/C=C/CCNC2=O |
